Reference: US9713615B2, “Tetrahydroisoquinolin-2-yl-(quinazolin-4-yl)methanone compounds” (Rexahn Pharmaceuticals, Inc., priority 2013, dated 2017)

Key:
MDA-MB-231 (breast) = test: SRB growth inhibition assay, MDA-MB-231; type: cell-based, Human; settings: Homo sapiens, MDA-MB-231, 96 hours incubation, read-out: Inhibition of cell growth (IC50, μM) MDA-MB-231
Text: (§1) Cancer cells used in this study to determine the effect of tetrahydroisoquinolin-2-yl-(quinazolin-4-yl)methanone compounds were obtained from the following sources: Human OVCAR-3 (ovary), SK-MEL-28 (melanoma), MDA-MB-231 (breast), HeLa (cervix), PC3 (prostate), HepG2 (liver), A549 (lung), Caki-1 (kidney), HCT116 (colon) and PANC-1 (pancreas) from the American Type Culture Collection (ATCC) (Manassas, Va.); U251 (brain) from Riken (Japan); MKN-45 (stomach) from DSMZ (Germany). All cell lines except MDA-MB-231, HCT116, Caki-1 and PANC-1 were grown in RPMI1640 medium (Invitrogen, Carlsbad, Calif.) supplemented with 10% fetal bovine serum (“FBS”), 1 mM sodium pyruvate, 10 mM HEPES and 100 U/ml penicillin and 100 μg/ml streptomycin (“P/S”). MDA-MB-231, HCT116, Caki-1 and PANC-1 cells were maintained in Dulbecco's modified Eagle's medium (“DMEM”, Invitrogen) supplemented with 10% FBS, P/S, 10 mM HEPES and 2 mM L-glutamine. All cells were incubated at 37° C. under humidified 5% CO2.
(§2) The growth inhibition of the tetrahydroisoquinolin-2-yl-(quinazolin-4-yl)methanone compounds against a variety of human tumor cells was evaluated to study the relative importance of particular substituent groups on the compounds. The tetrahydroisoquinolin-2-yl-(quinazolin-4-yl)methanone compounds, prepared as described above, were tested with DMSO as a control.
(§3) The growth inhibition assay of representative tetrahydroisoquinolin-2-yl-(quinazolin-4-yl)methanone derivatives against human tumor cell lines was performed using the Sulforhodamine B (“SRB”) method (Skehan et al., J. National Cancer Institute, 82: 1107-1112 (1990)). Briefly, exponentially growing tumor cells were seeded into a 96-well plate at a density of 2-3×10^3 cells/well and treated with tetrahydroisoquinolin-2-yl-(quinazolin-4-yl)methanone compounds the next day. Triplicate wells were used for each treatment. The cells were incubated with the various compounds for 96 hours at 37° C. in a humidified 5% CO2 atmosphere. After 96-hour incubation, cells were fixed with 10% trichloroacetic acid (“TCA”), incubated for 1 hour at 4° C., and washed 3 times with tap water. Subsequently, cells were stained with 0.4% sulforhodamine B in 1% acetic acid for 30 minutes, washed 4 times with 1% acetic acid, and air-dried again After 5 minutes agitation in 10 mM Tris solution, the absorbance of each well was measured at 530 nm using Benchmark Plus Microplate reader (Bio-Rad Laboratories, Hercules, Calif.).
(§4) To translate the OD530 values into the number of live cells in each well, the OD530 values were compared to those on standard OD530-versus-cell number curves generated for each cell line. The percent survival was calculated using the formula: % Survival=live cell number [test]/live cell number [control]×100
(§5) The IC50 values were calculated by non-linear regression analysis.
(§6) The compounds were screened against at […] including PANC-1, MDA-MB-231, HCT116 and Caki-1, at approximately 1 μM concentration. The inhibition of cell growth (IC50, μM) of some tetrahydroisoquinolin-2-yl-(quinazolin-4-yl)methanone compounds are shown in Table 2.

HCT116 (colon) = test: SRB growth inhibition assay, HCT116; type: cell-based, Human; settings: Homo sapiens, HCT-116, 96 hours incubation, read-out: Inhibition of cell growth (IC50, μM) HCT116
Text: as §1, §2, §3, §4, §5, §6

Caki-1 (kidney) = test: SRB growth inhibition assay, Caki-1; type: cell-based, Human; settings: Homo sapiens, CAKI-1, 96 hours incubation, read-out: Inhibition of cell growth (IC50, μM) Caki-1
Text: as §1, §2, §3, §4, §5, §6

PANC-1 (pancreas) = test: SRB growth inhibition assay, PANC-1; type: cell-based, Human; settings: Homo sapiens, PANC-1, 96 hours incubation, read-out: Inhibition of cell growth (IC50, μM) Panc-1
Text: as §1, §2, §3, §4, §5, §6

MKN-45 (stomach) = test: SRB growth inhibition assay, MKN-45; type: cell-based; settings: Homo sapiens, 96 hours incubation, read-out: Inhibition of cell growth (IC50, μM) MKN-45
Text: as §1, §2, §3, §4, §5

SK-MEL-28 (melanoma) = test: SRB growth inhibition assay, SK-MEL-28; type: cell-based; settings: Homo sapiens, 96 hours incubation, read-out: Inhibition of cell growth (IC50, μM) SK-MEL-28
Text: as §1, §2, §3, §4, §5

HeLa (cervix) = test: SRB growth inhibition assay, HeLa; type: cell-based; settings: Homo sapiens, 96 hours incubation, read-out: Inhibition of cell growth (IC50, μM) HeLa
Text: as §1, §2, §3, §4, §5

OVCAR-3 (ovary) = test: SRB growth inhibition assay, OVCAR-3; type: cell-based; settings: Homo sapiens, 96 hours incubation, read-out: Inhibition of cell growth (IC50, μM) Ovcar3
Text: as §1, §2, §3, §4, §5

U251 (brain) = test: SRB growth inhibition assay, U251; type: cell-based; settings: Homo sapiens, U-251, 96 hours incubation, read-out: Inhibition of cell growth (IC50, μM) U251
Text: as §1, §2, §3, §4, §5

HepG2 (liver) = test: SRB growth inhibition assay, HepG2; type: cell-based; settings: Homo sapiens, 96 hours incubation, read-out: Inhibition of cell growth (IC50, μM) HepG2
Text: as §1, §2, §3, §4, §5

A549 (lung) = test: SRB growth inhibition assay, A549; type: cell-based; settings: Homo sapiens, 96 hours incubation, read-out: Inhibition of cell growth (IC50, μM) A549
Text: as §1, §2, §3, §4, §5

PC3 (prostate) = test: SRB growth inhibition assay, PC3; type: cell-based; settings: Homo sapiens, 96 hours incubation, read-out: Inhibition of cell growth (IC50, μM) PC-3
Text: as §1, §2, §3, §4, §5

[1] = system: MDA-MB-231 human breast adenocarcinoma cells; test: Xenograft study in nude mice; type: in vivo; settings: 50 mg/kg intraperitoneal three times per week from day 15; subcutaneous MDA-MB-231 xenograft, female NCr nu/nu mice
Description: Tumor growth inhibition by tetrahydroisoquinolin-2-yl-(quinazolin-4-yl)methanone compounds in an animal model was carried out by performing an […] xenograft study of nude mice was conducted with Compound 1. Suitable human cancer cell lines are those that have been tested previously for inhibition of cancer cell growth. The antitumor efficacy of Compound 1 was evaluated against subcutaneously injected tumor xenografts in nude mice. Tumor volume was measured after treatment with Compound 1.
A suspension of MDA-MB-231 cells (5×10^6 cells in […]) was injected subcutaneously into the right flank of CR female NCr nu/nu mice on day 0. A sufficient number of mice were injected with MDA-MB-231 cell suspension (0.2 ml/mouse) so that tumors in a volume range as narrow as possible were selected for the trial on the day of treatment initiation. Animals with tumors in the proper size range (100˜150 mm^3) were assigned to various treatment groups. Compound 1 was dissolved in the mixture of 15% dimethylacetamide and 30% Solutol® HS15 in water. Solvent alone served as control. […] To quantify tumor growth, three perpendicular diameters of the tumors were measured with calipers every 3-4 days, and the body weight of the mice was monitored for toxicity. The tumor volume was calculated using the formula: tumor volume (mm^3)=(width)×(length)×(height)×π/6.

Row | SMILES | IC50 (MDA-MB-231 (breast)) [µM] | IC50 (HCT116 (colon)) [µM] | IC50 (PANC-1 (pancreas)) [µM] | IC50 (MKN-45 (stomach)) [µM] | IC50 (SK-MEL-28 (melanoma)) [µM] | IC50 (HeLa (cervix)) [µM] | IC50 (OVCAR-3 (ovary)) [µM] | IC50 (U251 (brain)) [µM] | IC50 (HepG2 (liver)) [µM] | IC50 (A549 (lung)) [µM] | IC50 (PC3 (prostate)) [µM] | IC50 (Caki-1 (kidney)) [µM] | inhibition of tumor growth (tumor volume) [1]
1 | COc1ccc2c(c1O)CCN(C(=O)c1nc(-c3ccc(F)cc3)nc3ccccc13)C2 [Compound 1, 2-[[2-(4-fluorophenyl)quinazolin-4-yl]carbonyl]-5-hydroxy-6-methoxy-1,2,3,4-tetrahydroisoquinoline] | 0.06 | 0.069 | 0.057 | 0.058 | 0.063 | 0.063 | 0.06 | 0.067 | 0.12 | 0.14 | 0.076 | 0.056 | inhibition of tumor growth
2 | COc1ccc2c(c1O)CCN(C(=O)c1nc(-c3ccccc3)nc3ccccc13)C2 [Compound 17, 2-[[2-phenylquinazolin-4-yl]carbonyl]-5-hydroxy-6-methoxy-1,2,3,4-tetrahydroisoquinoline] | 0.066 | 0.081 | 0.062 | 0.063 | 0.069 | 0.074 | 0.074 | 0.067 | 0.14 | 0.15 | 0.076 | 0.057 | –
3 | COc1ccc(-c2nc(C(=O)N3CCc4c(ccc(OC)c4O)C3)c3ccccc3n2)cc1 [Compound 22, 2-[[2-(4-methoxylphenyl)quinazolin-4-yl]carbonyl]-5-hydroxy-6-methoxy-1,2,3,4-tetrahydroisoquinoline] | 0.052 | 0.086 | 0.056 | 0.055 | 0.072 | 0.064 | 0.08 | 0.069 | 0.19 | 0.15 | 0.076 | 0.057 | –

Now from value to molecule, other results behind:

Row | IC50 (MDA-MB-231 (breast)) [µM] | IC50 (HCT116 (colon)) [µM] | IC50 (PANC-1 (pancreas)) [µM] | IC50 (MKN-45 (stomach)) [µM] | IC50 (SK-MEL-28 (melanoma)) [µM] | IC50 (HeLa (cervix)) [µM] | IC50 (OVCAR-3 (ovary)) [µM] | IC50 (U251 (brain)) [µM] | IC50 (HepG2 (liver)) [µM] | IC50 (A549 (lung)) [µM] | IC50 (PC3 (prostate)) [µM] | SMILES | IC50 (Caki-1 (kidney)) [µM] | inhibition of tumor growth (tumor volume) [1]
4 | 0.12 | 0.14 | 0.12 | 0.051 | 0.098 | 0.12 | 0.15 | 0.11 | 0.2 | 0.21 | 0.15 | COc1ccc2c(c1O)CCN(C(=O)c1nc(-c3cccc(F)c3)nc3ccccc13)C2 [Compound 42, 2-[[2-(3-fluorophenyl)quinazolin-4-yl]carbonyl]-5-hydroxy-6-methoxy-1,2,3,4-tetrahydroisoquinoline] | 0.082 | –
5 | 0.17 | 0.22 | 0.19 | – | 0.2 | – | 0.23 | 0.17 | 0.31 | – | 0.21 | COc1ccc2c(c1O)CCN(C(=O)c1nc(-c3ccc(F)cc3F)nc3ccccc13)C2 [Compound 57, 2-[[2-(2,4-difluorophenyl)quinazolin-4-yl]carbonyl]-5-hydroxy-6-methoxy-1,2,3,4-tetrahydroisoquinoline] | 0.21 | –
6 | 0.045 | 0.068 | 0.054 | 0.058 | 0.059 | 0.074 | 0.068 | 0.064 | 0.096 | 0.11 | 0.049 | COc1ccc2c(c1O)CCN(C(=O)c1nc(-c3ccncn3)nc3ccccc13)C2 [Compound 70, 2-[[2-(4-pyrimidinyl)quinazolin-4-yl]carbonyl]-5-hydroxy-6-methoxy-1,2,3,4-tetrahydroisoquinoline] | 0.055 | –
7 | 0.13 | 0.15 | 0.15 | 0.071 | 0.13 | 0.15 | 0.14 | 0.11 | 0.2 | 0.24 | 0.15 | COc1ccc2c(c1O)CCN(C(=O)c1nc(-c3cccnc3)nc3ccccc13)C2 [Compound 84, 2-[[2-(3-pyridinyl)quinazolin-4-yl]carbonyl]-5-hydroxy-6-methoxy-1,2,3,4-tetrahydroisoquinoline] | 0.093 | –
